Reference: US10413583B2, “Synthetic substrates for enzymes that catalyze reactions of modified cysteines and related methods” (The University of Chicago, priority 2016, dated 2019)

Legend:
[1] = target: T1, APT1 (Homo sapiens, UniProt O75608); assay: In vitro kinetic assays of RDP-1 and RDP-2 with APT1; format: biochemical; conditions: 1 μM probe, 200 nM enzyme, 20 min
T1 construct: His-tag; made in house; host or cells: E. coli ROSETTA DE3
Experimental: (§1) 100 μL of 400 nM of APT1 or APT2, or buffer without added enzymes, were added to buffer (20 mM HEPES, 150 mM NaCl, 0.1% Triton X-100, pH 7.4, degassed by bubbling N2 through the solution for 1 h) and prewarmed to 37° C. in a heating block for 5 min. The buffer solutions were then added using a multichannel pipet to a black-walled clear-bottom 96-well plate (Nunc, Roskilde, Denmark) containing 100 μL of 2 μM RDP-1 or RDP-2 in buffer (20 mM HEPES, 150 mM NaCl, 0.1% Triton X-100, pH 7.4, 0.15% DMSO) that had been pre-warmed in the plate reader at 37° C. for 5 min, resulting in a final concentration of 200 nM APT1 or APT2, 1 μM RDP-1 or RDP-2, and 0.1% DMSO. Fluorescent intensities λex1=430/24 nm, λem1=470/24 nm; λex2=480/20, λem2=575/40; gain=75; No. of flashes=8) were obtained as a ratio of em1/em2 in kinetic mode in 30 s intervals for 30 min.

[2] = target: T2, APT2 (Homo sapiens, UniProt O95372); assay: In vitro kinetic assays of RDP-1 and RDP-2 with APT2; format: biochemical; conditions: 1 μM probe, 200 nM enzyme, 20 min
T2 construct: His-tag; made in house; host or cells: E. coli ROSETTA DE3
T2 sequence (O95372 whole entry): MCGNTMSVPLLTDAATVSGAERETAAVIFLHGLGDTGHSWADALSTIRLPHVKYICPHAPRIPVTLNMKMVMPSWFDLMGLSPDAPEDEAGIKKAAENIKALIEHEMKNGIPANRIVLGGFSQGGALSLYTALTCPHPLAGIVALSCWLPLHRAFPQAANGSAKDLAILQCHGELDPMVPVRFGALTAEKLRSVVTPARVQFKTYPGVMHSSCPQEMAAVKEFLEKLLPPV
Experimental: as §1

[3] = tested on: catalytically inactive APTs (APT1(S119A), APT2(S122A)); assay: In vitro kinetic assays of RDP-1 and RDP-2 with catalytically inactive enzymes; format: biochemical, human; conditions: 10 times more APT1(S119A) and APT2(S122A) enzyme
[4] = Stability of RDP-1 and RDP-2 with biological reductant (GSH); format: physicochemical; conditions: 1 μM probe, 20 mM GSH, pH 7.4 buffer
Experimental: RDP-1 or RDP-2 were added to buffer (20 mM HEPES, 150 mM NaCl, 0.1% Triton X-100, pH 7.4, degassed by bubbling N2 through the solution for 1 h) prewarmed to 37° C. in a heating block for 5 min containing no reducing agent or GSH using a multichannel pipet to at least three wells of a black-walled clear-bottom 96-well plate (Nunc, Roskilde, Denmark; Final concentration: 1 μM RDP-1/RDP-2, 20 mM GSH, 20 mM HEPES, 150 mM NaCl, 0.1% Triton X-100, pH 7.4, 4.1% DMSO). Fluorescent intensities (λex1=430/25 nm, λeml=470/24 nm; λex2=480/20, λem2=575/40; gain=75; No. of flashes=10) were obtained as a ratio of em1/em2 in kinetic mode in 30 s intervals for 30 min.

[5] = tested on: HEK293T cells; assay: Fluorescence imaging of RDP-1 and RDP-2 with HEK293T cells; format: cell-based, human; conditions: 1 μM probe for 10 min
Experimental: HEK293T were plated with […] of DMEM (Gibco, Gaithersburg, Md., United States of America; High Glucose, Glutamax, 10% FBS) a four well chambered imaging dish (D35C4-20-1.5-N, Cellvis, Mountain View, Calif., United States of America) which were precoated with 4 μg Poly-D-lysine (30-70 kilodalton (KDa), Alfa Aesar, Haverhill, Mass., United States of America) for 2 h at room temperature or overnight at 4° C. and grown to ca. 80% confluence prior to imaging. 30 min before the addition of the RDP, the cell culture media was removed and cells were washed with 500 μL of serum-free DMEM (Gibco, Gaithersburg, Md., United States of America, High Glucose, Glutamax, no FBS). The media was then replaced with 500 μL of serum-free DMEM containing 100 nM Mitotracker Deep Red (Thermo Fisher Scientific, Waltham, Mass., United States of America; to assist in focusing and processing) and either 0.1% DMSO carrier as a control or Palm B, ML348, or ML349 in DMSO and incubated for 30 min at 37° C. and 5% CO2. The media was removed, the cells were washed with 500 μL of Live Cell Imaging Solution (Thermo Fisher Scientific, Waltham, Mass., United States of America), and 500 μL of 1 μM RDP-1 or RDP-2 along with the appropriate inhibitor or DMSO as control in Live Cell Imaging Solution was added to each well. After incubation for 10 min at 37° C. and 5% CO2, the cells were washed with 500 μL Live Cell Imaging Solution and 500 μL of Live Cell Imaging Solution containing DMSO or the appropriate inhibitor was added to the cells immediately before images were obtained on an inverted epi-fluorescence microscope (Olympus IX83; Olympus Corporation, Tokyo, Japan) attached with EMCCD camera (Photometrics EVOLVE™ Delta; Photometrics, Tucson, Ariz., United States of America) with 40× oil objective (N/A 1.3) for RDP-1 (excitation filter 1 430/24 nm, dichroic chroma 89007, emission filter 1 470/24 nm, exposure time 100 ms, EM gain 80, excitation filter 2 480/20 nm, dichroic chroma 49014, emission filter 2 575/40 nm, exposure time 70 ms, EM gain 50) or for RDP-2 (excitation filter 1 430/24 nm, dichroic chroma 89007, emission filter 1 470/24 nm, exposure time 70 ms, EM gain 50, excitation filter 2 480/20, dichroic chroma 49014, emission filter 2 575/40 nm, exposure time 50 ms, EM gain 30), brightfield (exposure time 50 ms, EM gain 30), and MitoTracker Deep Red: (excitation filter 640/30 nm, emission filter 705/72 nm, dichroic chroma 89016, exposure time 15 ms, EM gain 15). Analyses were performed in ImageJ as described below. Each experiment was repeated at least three separate times with identical results.
The probe channel data were expressed as a ratio of the blue channel divided by the green channel and normalized to the average fluorescence intensity of the control conditions. To eliminate errors from autofluorescence, the images were thresholded using the bluer channel images at the same minimum level that included the maximum number of cells in focus (as determined visually by the mitocondrial dye) while limiting the signal from areas where cells are not present. The average value of all nonzero pixels from the blue channel:green channel ratio image were calculated in ImageJ for three different measurements from each experiment. The percent deprotected was estimated by imaging RDP-1/2 in buffer (20 mM HEPES, 150 mM NaCl, 0.1% Triton X-100, pH 7.4, 0.1% DMSO) and for dye deprotected with 20 mM DTT in buffer (20 mM HEPES, 150 mM NaCl, 0.1% Triton X-100, pH 7.4, 0.1% DMSO) for 1 h at room temperature before aliquoted into individual tubes and stored at −80° C. A fresh aliquot of the solution was thawed for each experiment and diluted to 250 nM (RDP-1) or 500 nM (RDP-2) in buffer (20 mM HEPES, 150 mM NaCl, 0.1% Triton X-100, pH 7.4, 10 mM DTT) and allowed to equilibrate for 30 m before being imaged. […]

T1 sequence (O75608 whole entry): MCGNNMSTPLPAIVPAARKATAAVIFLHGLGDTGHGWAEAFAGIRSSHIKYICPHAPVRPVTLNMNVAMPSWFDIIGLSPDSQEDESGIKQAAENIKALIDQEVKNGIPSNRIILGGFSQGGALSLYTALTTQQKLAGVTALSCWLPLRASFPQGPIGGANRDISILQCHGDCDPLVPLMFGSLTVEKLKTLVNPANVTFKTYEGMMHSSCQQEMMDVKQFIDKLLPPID

SMILES | ratio change of ratiometric response [1] | ratio change of ratiometric response [2] | response to catalytically inactive APTs [3] | response to 20 mM glutathione [4] | depalmitoylation of probe (percent deprotected dye) [5]
CCCCCCCC(=O)SC[C@@H](C(=O)N[C@@H](CCCCN)C(=O)OC)N(C)C(=O)/C(C#N)=C/c1c(C)c2cc3c4c(c2oc1=O)CCCN4CCC3 [RDP-2, (5S)-5-[(2R)-2-[(2E)-2-cyano-N-methyl-3-{6-methyl-4-oxo-3-oxa-13-azatetracyclo[7.7.1.0^2,7.0^13,17]heptadeca-1,5,7,9(17)-tetraen-5-yl}prop-2-enamido]-3-(octanoylsulfanyl)propanamido]-6-methoxy-6-oxohexan-1-aminium] | 1.9 to 16 | 1.9 to 16 | Neither RDP-1 nor RDP-2 responds | Neither RDP-1 nor RDP-2 responds | ~18%
CCCCCCCC(=O)SC[C@@H](C(=O)NC)N(C)C(=O)/C(C#N)=C/c1c(C)c2cc3c4c(c2oc1=O)CCCN4CCC3 [RDP-1, (2E)-2-cyano-N-methyl-3-{6-methyl-4-oxo-3-oxa-13-azatetracyclo[7.7.1.0^2,7.0^13,17]heptadeca-1,5,7,9(17)-tetraen-5-yl}-N-[(1R)-1-(methylcarbamoyl)-2-(octanoylsulfanyl)ethyl]prop-2-enamide] | 0.7 to 34 | 0.7 to 34 | Neither RDP-1 nor RDP-2 responds | Neither RDP-1 nor RDP-2 responds | about 28%
